Data reported in patent US7449553B2, “Antibody that binds ceramidase” (Takara Bio Inc., priority 1999, dated 2008).

Target: T1, neutral/alkaline ceramidase derived from a mouse liver (Mus musculus, UniProt Q9JHE3)
T1 construct: the ceramidase purified from the mouse liver lacked the peptide of the N-terminal portion of the polypeptides encoded by the above-mentioned ORF; from tissue; host or cells: mouse liver (membrane fraction, purified by chromatography)
Test: Substrate specificity of the ceramidase (degradation of 14C-labeled sphingolipids, TLC)
Type: biochemical
Details: for Degradation Ratio (%): 5 milliunits ceramidase on 100 pmol 14C-labeled sphingolipid, 25 mM Tris-HCl pH 7.5, 1% sodium cholate, 37° C., 24 hours; for Substrate specificity (in words): as shown in Table 1
Method: Five milliunits of the ceramidase of the present invention is acted on 100 pmol of various kinds of sphingolipids, in which the fatty acid moiety is labeled with ^14C-radioactive isotope, in […] of 25 mM Tris-hydrochloric acid buffer, pH 7.5, containing 1% sodium cholate at 37° C. for 24 hours. The reaction mixture is developed on silica gel thin layer chromatography. Thereafter, the ^14C-labeled sphingolipids and the ^14C-labeled fatty acids generated by the enzymatic reaction are detected and quantified by Imaging Analyzer BAS1000 (manufactured by Fuji Photo Film). The degradation ratio is calculated from the obtained values.

T1 sequence (Q9JHE3 75-756): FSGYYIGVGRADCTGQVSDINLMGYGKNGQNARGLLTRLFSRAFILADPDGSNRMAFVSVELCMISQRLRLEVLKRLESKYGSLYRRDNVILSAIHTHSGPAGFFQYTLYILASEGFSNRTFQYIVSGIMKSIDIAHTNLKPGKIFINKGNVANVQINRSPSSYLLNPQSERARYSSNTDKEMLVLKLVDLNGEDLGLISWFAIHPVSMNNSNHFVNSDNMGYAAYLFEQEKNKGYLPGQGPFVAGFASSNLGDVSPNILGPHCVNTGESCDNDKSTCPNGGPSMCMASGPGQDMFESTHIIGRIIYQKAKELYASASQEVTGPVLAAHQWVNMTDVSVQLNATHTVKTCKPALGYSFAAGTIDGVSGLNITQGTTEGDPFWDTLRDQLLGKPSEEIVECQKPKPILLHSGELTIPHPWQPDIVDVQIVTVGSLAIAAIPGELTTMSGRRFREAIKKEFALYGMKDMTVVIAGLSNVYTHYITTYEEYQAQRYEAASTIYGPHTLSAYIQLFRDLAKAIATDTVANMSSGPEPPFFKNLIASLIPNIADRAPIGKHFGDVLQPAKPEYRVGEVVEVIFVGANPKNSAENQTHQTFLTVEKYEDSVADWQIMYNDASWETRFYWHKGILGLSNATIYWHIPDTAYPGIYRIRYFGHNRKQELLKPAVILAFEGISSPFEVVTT

Degradation Ratio (%)	Substrate specificity (in words)	Compound
2		CCCCCCCCCCCCC/C=C/[C@@H](O)[C@H](CO)NC(=O)CCCCCNc1ccc([N+](=O)[O-])c2nonc12 [6-((N-(7-nitrobenz-2-oxa-1,3-diazole-4-yl)amino)hexanoyl)sphingosine]
97		CCCCCCCCCCCCC/C=C/[C@@H](O)[C@H](CO)NC(=O)CCCCCCCCCCCNc1ccc([N+](=O)[O-])c2nonc12 [12-((N-(7-nitrobenz-2-oxa-1,3-diazol-4-yl)amino)dodecanoyl)sphingosine]
63		CCCCCCCCCCCCC/C=C/[C@@H](O)[C@H](CO)NC(=O)CCCCCCCCCCC [N-Lauroylsphingosine]
5		CCCCCCCCCCCCCCCC(=O)N[C@@H](CO)[C@H](O)[C@H](O)CCCCCCCCCCCCCC [N-Palmitoylphytosphingosine]
59		CCCCCCCCCCCCCCCC(=O)N[C@@H](CO)[C@H](O)CCCCCCCCCCCCCCC [N-Palmitoylsphinganine]
93		CCCCCCCCCCCCC/C=C/[C@@H](O)[C@H](CO)NC(=O)CCCCCCCCCCCCCCC [N-Palmitoylsphingosine]
2		CCCCCCCCCCCCCCCCCC(=O)N[C@@H](CO)[C@H](O)[C@H](O)CCCCCCCCCCCCCC [N-Stearoylphytosphingosine]
40		CCCCCCCCCCCCCCCCCC(=O)N[C@@H](CO)[C@H](O)CCCCCCCCCCCCCCC [N-Stearoylsphinganine]
83		CCCCCCCCCCCCC/C=C/[C@@H](O)[C@H](CO)NC(=O)CCCCCCCCCCCCCCCCC [N-Stearoylsphingosine]
0	not acting	Galactosylceramide
0	not acting	Galb1-3GalNAcb1-4(NeuAca2-3)Galb1-4G1cb1-1′Cer [GM1a]
0	not acting	Sphingomyelin
0	not acting	Sulfatide
